The values below come from ChEMBL document CHEMBL1132872, “Synthesis of a potent aminocyclitol alpha-mannosidase inhibitor, 1L-(1,2,3,5/4)-5-amino-4-O-methyl-1,2,3,4-cyclopentanetetrol” (Bioorg Med Chem Lett, 2000).

Parameters in all cases: species or system Canavalia ensiformis
Assay [1] can be described thus: Inhibitory activity against Alpha-mannosidase (Jack bean); No inhibition.
Assay [2] can be described thus: Inhibitory activity against Alpha-mannosidase (Jack bean).
Assay [3] is described as follows: Compound (at <10 e -3M) was tested for inhibition of Alpha-mannosidase (jack bean); No inhibition.

A word on the IC50: it is the concentration at which inhibition is half-maximal. High values mean a need for much substance, low ones inhibition by little substance. For the compound `CO[C@@H]1[C@@H](N)[C@@H](OC)[C@@H](O)[C@H]1O`, the IC50 entry in assay [1] was “Not Active”. In assay [2], `N[C@@H]1C[C@H](O)[C@H](O)[C@@H]1O` had a 50% inhibitory concentration (IC50) of 11 µM.

In the case of `CO[C@@H]1[C@@H](N)[C@@H](O)[C@@H](O)[C@H]1O`, the IC50 in assay [2] came to 0.16 µM. As for `CO[C@H]1[C@@H](N)[C@@H](O)[C@@H](O)[C@H]1O`, the IC50 entry in assay [3] is “Not Active”. Compound `CS[C@@H]1[C@@H](N)[C@@H](O)[C@@H](O)[C@H]1O` [MANNOSTATIN A] yielded an IC50 in assay [2] of 0.35 µM. Still for that read-out and setting: the value for `N[C@H]1[C@@H](O)[C@@H](O)[C@@H](O)[C@@H]1S` was 36 µM; that for `CCS[C@@H]1[C@@H](N)[C@@H](O)[C@@H](O)[C@H]1O` was 5 µM.
